From ChEMBL document CHEMBL1152465, “Comparative evaluation of the inhibitory activities of a series of pyrimidinedione congeners that inhibit human immunodeficiency virus types 1 and 2” (Antimicrob Agents Chemother, 2008)
The source made the active and inactive calls.

Tests used:
[1] = Therapeutic index, ratio of TC50 human HeLa cells expressing CD4-LTR to EC50 for HIV1 entry inhibition in human HeLa cells expressing CD4-LTR; assay type: cell-based; conditions: read-out: TI
[2] = system: Human immunodeficiency virus 2; assay: Antiviral activity against HIV2 assessed as inhibition of viral replication treated at time points after viral entry into host cells; assay type: functional, organism-based
[3] = Cytotoxicity against human CEM-SS cells by XTT assay; assay type: cell-based; conditions: read-out: TC50 (the source's name)
[4] = target: Human immunodeficiency virus type 1 reverse transcriptase (Human immunodeficiency virus 1, UniProt Q72547); assay: Inhibition of wild type HIV1 reverse transcriptase assessed as 32P-labeled GMP incorporation into nascent DNA strand
[5] = system: Human immunodeficiency virus 2; assay: Antiviral activity against HIV2 assessed as inhibition of viral single round replication at early time point; assay type: functional, organism-based
[6] = Therapeutic index, ratio of TC50 for human CEM-SS cells to EC50 for HIV2 ROD infected in human CEM-SS cells; assay type: cell-based; conditions: for selectivity ratio: CEM-SS cells, read-out: TI; for TI: cem-ss
[7] = system: Human immunodeficiency virus 1; assay: Antiviral activity against HIV1 RF infected in human CEM-SS cells assessed as inhibition of virus-induced cytopathic effect by XTT assay; assay type: functional, organism-based; conditions: Human immunodeficiency virus 1, RF
[8] = system: Human immunodeficiency virus 2; assay: Inhibition of HIV2 reverse transcriptase
[9] = target: Human immunodeficiency virus type 1 reverse transcriptase (Human immunodeficiency virus 1, UniProt Q72547, K103N); assay: Inhibition of HIV1 reverse transcriptase K103N mutant assessed as 32P-labeled GMP incorporation into nascent DNA strand
[10] = system: Human immunodeficiency virus 2; assay: Antiviral activity against HIV2 ROD infected in human CEM-SS cells assessed as inhibition of virus-induced cytopathic effect by XTT assay; assay type: functional, organism-based, ISOLATE ROD
[11] = Therapeutic index, ratio of TC50 for human CEM-SS cells to EC50 for HIV1 RF infected in human CEM-SS cells; assay type: cell-based; conditions: read-out: TI
[12] = Cytotoxicity against human HeLa cells expressing CD4-LTR by XTT assay; assay type: cell-based; conditions: read-out: TC50 (the source's name)
[13] = system: Human immunodeficiency virus 1; assay: Antiviral activity against HIV1 infected in human HeLa cells expressing CD4-LTR assessed as inhibition of viral entry-related beta galactosidase expression treated for 2 hrs followed by drug wash out measured after 48 hrs by MAGI assay; assay type: functional, organism-based; conditions: Human immunodeficiency virus 1, HeLa
[14] = system: Human immunodeficiency virus 1; assay: Antiviral activity against HIV1 infected in human CEM-SS cells assessed as inhibition of viral replication and virus-induced cytopathic effect by dose-response curve analysis; assay type: functional; conditions: Human immunodeficiency virus 1, CEM-SS
[15] = system: Human immunodeficiency virus 2; assay: Inhibition of HIV2 reverse transcriptase assessed as 32P-labeled GMP incorporation into nascent DNA strand at highest concentration
[16] = Human immunodeficiency virus 2, ISOLATE ROD, CEM-SS, read-out: EC50

Compound | selectivity ratio [1] | Activity [2] | CC50 [3] [µM] | IC50 [4] [µM] | Activity [5] | selectivity ratio [6] | EC50 [7] [µM] | Activity [8] | IC50 [9] [µM] | EC50 [10, 16] [µM] | selectivity ratio [11] | CC50 [12] [µM] | EC50 [13] [µM] | EC99 [14] [µM] | Activity [15] | TI [6] | EC50 ([10]; cem-ss)
Cc1cc(C)cc(Sc2c(C(C)C)c(=O)[nH]c(=O)n2CC2CCCCC2)c1 | 1890 | inactive | 13.2 | 0.164 | Active | 2.4 | 0.011 | inactive | > 258 | 5.5 | 1560 | 15.2 | 0.008 | 1 | inactive |  | 
Cc1cc(C)cc(Sc2c(C(C)C)c(=O)[nH]c(=O)n2CCC2=CCCC2)c1 | 1990 | inactive | 19.3 | 2.36 | Active |  | 0.94 | inactive | > 260 |  | 26 | 21.6 | 0.011 | 1 | inactive | Not Active | Not Active
CCc1c(C(=O)c2cc(C)cc(C)c2)n(Cc2ccccc2)c(=O)[nH]c1=O | 10200 | inactive | 24.6 | 0.025 | Active | 59.3 | 0.016 | inactive | 2.3 | 0.4 | 68300 | 562 | 0.05 | 1 | inactive |  | 
CCc1c(Oc2cc(C)cc(C)c2)n(CCC2=CCCC2)c(=O)[nH]c1=O | 424 | inactive | 1100 | 10.3 | Active | > 39.7 | 0.42 | inactive | 247 | 28.2 | 2600 | 1110 | 2.62 | 1 | inactive |  | 
Cc1cc(C)cc(Sc2c(C(C)C)c(=O)[nH]c(=O)n2CC2CCC2)c1 | 37 | inactive | 6.1 | 0.02 | Active | 3.9 | 0.00016 | inactive | 182 | 1.6 | 9290 | 10.4 | 0.28 | 1 | inactive |  | 
Cc1cc(C)cc(C(=O)c2c(C(C)C)c(=O)[nH]c(=O)n2CCC2C=CCC2)c1 (stereo not given) | 341 | inactive | 13.7 | 0.023 | Active | 65 | 0.0026 | inactive | 5.5 | 0.2 | 8940 | 18.3 | 0.05 | 1 | inactive |  | 
CCc1c(Sc2cc(C)cc(C)c2)n(CCC2=CCCC2)c(=O)[nH]c1=O | 4400 | inactive | 143 | 2.16 | Active | 7.4 | 0.27 | inactive | 18.3 | 19.2 | 528 | 143 | 0.03 | 1 | inactive |  | 
Cc1cc(C)cc(C(=O)c2c(C(C)C)c(=O)[nH]c(=O)n2CCC2=CCCC2)c1 | 1040 | inactive | 19.2 | 0.223 | Active |  | 0.053 | inactive | 230 |  | 750 | 29.4 | 0.03 | 1 | inactive | Not Active | Not Active
Cc1cc(C)cc(Sc2c(C(C)C)c(=O)[nH]c(=O)n2Cc2ccccc2)c1 | 2340 | inactive | 192 | 0.137 | Active | 1220 | 0.0012 | inactive | 1.66 | 0.2 | 165000 | 192 | 0.08 | 1 | inactive |  | 
CCc1c(Sc2cc(C)cc(C)c2)n(CC2CC=CC2)c(=O)[nH]c1=O | 148 | inactive | 18.3 | 0.21 | Active | 38.2 | 0.0066 | inactive | 2.4 | 0.5 | 9060 | 38.9 | 0.26 | 1 | inactive |  | 
Cc1cc(C)cc(C(=O)c2c(C(C)C)c(=O)[nH]c(=O)n2CCC2CCCC2)c1 | 1460 | inactive | 17.3 | 0.065 | Active |  | 0.02 | inactive | 2.6 |  | 1180 | 20.6 | 0.014 | 1 | inactive | Not Active | Not Active
Cc1cc(C)cc(Oc2c(C(C)C)c(=O)[nH]c(=O)n2CCC2CCCC2)c1 | 675 | inactive | 7.8 | 0.234 | Active |  | 0.05 | inactive | 16.2 |  | 145 | 12.7 | 0.02 | 1 | inactive | Not Active | Not Active
CCc1c(Sc2cc(C)cc(C)c2)n(CC2=CCCC2)c(=O)[nH]c1=O | 104000 | inactive | 887 | 0.138 | Active | 451 | 0.056 | inactive | 66.8 | 2 | 15800 | 887 | 0.009 | 1 | inactive |  | 
Cc1cc(C)cc(Sc2c(C(C)C)c(=O)[nH]c(=O)n2CC2CC=CC2)c1 | 307 | inactive | 26.5 | 0.241 | Active | > 1.3 | 1.22 | inactive | > 270 | 15.3 | 22 | 23.2 | 0.08 | 1 | inactive |  | 
Cc1cc(C)cc(Oc2c(C(C)C)c(=O)[nH]c(=O)n2CC2=CCCC2)c1 | 116 | inactive | 16.4 | 0.032 | Active | 32.2 | 0.001 | inactive | 2.2 | 0.5 | 23500 | 20.5 | 0.18 | 1 | inactive |  | 
Cc1cc(C)cc(Sc2c(C(C)C)c(=O)[nH]c(=O)n2CCC2CC=CC2)c1 | 173 | inactive | 12.8 | 0.254 | Active | 2.5 | 0.002 | inactive | 149 | 6.2 | 6530 | 14.2 | 0.08 | 1 | inactive |  | 
Cc1cc(C)cc(C(=O)c2c(C(C)C)c(=O)[nH]c(=O)n2CC2CCCCC2)c1 | 127 | inactive | 16.2 | 0.008 | Active | 23.8 | 0.0052 | inactive | 16.5 | 0.7 | 8550 | 30.4 | 0.24 | 1 | inactive |  | 
